How the values were obtained:
Pdk1/Akt/Foxo1 = assay: Western blot of Pdk1/Akt/Foxo1 in skeletal muscles of Lepr^db/db mice; type: in vivo, mouse; details: 0.136 mg/kg ip daily, 52 days (FIG. 18)
Procedure: Male Lepr^db/db mice (C57BL/6J strain, purchased from The Jackson Laboratory) at 38 days of age were intraperitoneally injected daily with physiological saline ([…]) containing 0.2% DMSO or 0.136 mg of Compound #43 per kilogram body weight, diluted in the sterile physiological saline) for 52 days. After the treatment, gastrocnemius skeletal muscle samples were collected and stored at −80° C.
Frozen skeletal muscles were minced in sterile ice-old PBS containing complete proteinase and phosphatase inhibitors (Thermo-Fisher Scientific, Waltham, Mass.) and subjected to homogenization using a tissue homogenizer (Thermo-Fisher Scientific, Waltham, Mass.). These tissue homogenates were diluted in Themo-Fisher's RIPA buffer (1 part homogenate/2 part of RIPA buffer) containing complete proteinase/phosphatase inhibitors to extract the proteins. Proteins in the homogenates were extracted in RIPA buffer at 4° C. overnight. These overnight-extracted protein/tissue lysates were centrifuged at 12000×g for 30 min at 4° C., and the protein levels in the supernatant of these tissue lysates were determined using the Pierce Micro-BCA protein assay kit (Thermo Scientific-Piece Biotechnology, Rockford, Ill.) according to the manufacturer's protocol.
One hundred micrograms of skeletal muscle proteins were subjected to SDS-PAGE gel separation and then transferred to PVDF membranes, as described previously (Reddy et al. 2008 Science). Membranes were blocked in a phosphate-buffered saline (PBS) containing 5% (w/v) of bovine serum albumin (Sigma, St. Louis, Mo.) and incubated with specific primary antibodies followed by the incubation with HRP-conjugated anti-mouse or anti-rabbit secondary antibodies (1:5000 dilution, Cell Signaling Inc.). All primary antibodies were purchased from Cell Signaling Inc, except the antibodies against β-tubulin (LI-COR bioscience). Positive signals on the membrane blots were detected using Amersham's enhanced chemiluminescence Western Blotting Prime Detection reagents (GE Healthcare Lifescience, Pittsburgh, Pa.). Images of these luminescence signals on the membrane blots were captured using the LI-COR Odyssey Fc Image system (Lincoln, Nebr.). The same membrane blot was stripped and re-blotted with another antibody as described in the GE WB ECL-prime-detection protocol (GE healthcare Lifescience, Pittsburgh, Pa.). Protein band densities in the Western blots were determined using the NIH ImageJ software and then normalized by β-tubulin level in each sample. Data are presented as mean±SEM of 5 animal samples.

H4IIE cells = assay: Cell viability (CellTiter96 AQueous One) in H4IIE cells; type: cell-based, rat; details: tested doses
Procedure: After the above treatments, 50 μl of culture media were collected, and subjected to glucose analysis using Molecular Probes Amplex Red glucose assay kit (Cat #A22189) according to the manufacturer's protocol. Cell numbers or viability in the culture plate after the above compound treatments were determined using Promega's CellTiter96® AQueous One Solution Cell Proliferation Assay kits, according to the manufacturer's protocol and instructions. In brief, after removing 50 μl of culture media for glucose assay, cells were incubated with AQueous One solution (25 μl stock solution and 50 μl prewarmed PBS/per well) at 37° C. for 1 hour, and the absorbance of OD490 nm in each sample was determined by the Bio-Tek microplate reader. Cell viability in culture wells were determined by the subtraction of OD490 nm in cultured cells with the OD490 nm in plain culture media (without seeding of cells). Glucose production in the culture cells were obtained by normalizing the glucose concentration in culture media by cell viability in each well. At least 3 samples per each treatment were examined for the above analysis. Data are presented as Mean±SEM of those samples. Experiments were repeated at least twice.

[1] = Body weight, gross morphology and walking behavior of treated Lepr^db/db mice; type: in vivo
Procedure: Body weights of the above treated mice were recorded daily using a balance and any visible abnormal animal gross morphology and walking behavior were monitored daily. After the treatments, animals were fasted overnight and then subjected to blood glucose or HbA1c assays, glucose tolerance tests or tissue collections.
After the treatments for 43 days, animals were fasted overnight and then subjected to blood glucose and glucose tolerance tests. After daily treatments of these compounds for 90 days, sera from these animals were collected and then subjected to blood HbA1c assays.

Lepr^db/db mice = assay: Glucose tolerance test in Lepr^db/db mice; type: in vivo, mouse
Procedure: Male Lepr^db/db mice at 38 days of age were intraperitoneally (ip) injected daily with physiological saline ([…]) containing 0.2% DMSO, Compound #C, Compound #50, Compound #68, and/or Compound #43 (25 μg selenium or sulfur equivalents of each compound per kilogram body weight, diluted in sterile physiological saline) for periods ranging from 43-90 days. Body weights of the above treated mice were recorded daily using a balance and any visible abnormal animal gross morphology and walking behavior were monitored daily. After the treatments, animals were fasted overnight and then subjected to blood glucose or HbA1c assays, glucose tolerance tests or tissue collections.
For comparative studies of any potential anti-diabetic effects of Compounds #43, #69 and #70, male Lepr^db/db mice at 41 days of age were intraperitoneally (ip) injected daily with physiological saline ([…]) containing 0.2% DMSO, Compound #43, Compound #69, or Compound #70 (25 μg selenium of each compound per kilogram body weight, diluted in sterile physiological saline). After the treatments for 43 days, animals were fasted overnight and then subjected to blood glucose and glucose tolerance tests. After daily treatments of these compounds for 90 days, sera from these animals were collected and then subjected to blood HbA1c assays.
Glucose tolerance tests were performed as described previously (Li et al, Int J Biol Sci 2008; 4:29-36). Briefly, overnight-fasted Lepr^db/db mice after saline or compound treatments were injected intraperitoneally with 2 grams/kg body weight of 20% D-glucose. Blood glucose levels at time 0 (immediately before the injection of glucose), 0.25, 0.5, 1 and 2 hours after injection of glucose were determined using a glucometer with a maximum glucose measurement capacity of 600 mg/dL. Because of this, blood glucose levels over 600 mg/dL were counted as 600 mg/dL in the data analysis.

In the case of `C[Se]C[C@H]1O[C@@H](n2cnc3c(N)ncnc32)C(OC(C)=O)C1OC(C)=O` (stereo partly shown) [Compound #43, Adenosine, 5′-Se-methyl-5′-selino-, 2′,3′-diacetate], the “pAkt protein levels in skeletal muscle” value (Pdk1/Akt/Foxo1) is reported as “significantly elevated”, the “pFoxo1 protein levels in skeletal muscle” value (Pdk1/Akt/Foxo1) is reported as “significantly elevated” and the “total Akt and Foxo1 protein levels in skeletal muscle” value (Pdk1/Akt/Foxo1) is reported as “no significant change”. The “pPdk1 protein levels in skeletal muscle” value (Pdk1/Akt/Foxo1; P=0.11) was “approached statistical significance”, the “toxic effect on cell viability” value (H4IIE cells) was “No toxic effect” and the “overt toxic effects (morphology, walking behavior, body weight)” value ([1]; 25 μg selenium or sulfur/kg ip daily, 3 months) was “no overt toxic effects”. The “overt toxic effects (morphology, walking behavior, body weight)” value ([1]; 25 μg selenium/kg ip daily, 90 days, from 41 days of age) was “no overt toxic effects”, the “visible toxic effects on gross morphological and walking behavior” value ([1]; acute single ip injection, 0.0054-5.4 mg/kg) was “did not cause any visible toxic effects” and the “glucose tolerance (overall)” value (Lepr^db/db mice; 25 μg selenium or sulfur/kg ip daily 2 months (FIG. 8B)) was “dramatically improves glucose tolerance”. For the same compound, the “glucose tolerance (overall)” value (Lepr^db/db mice; 25 μg selenium/kg ip daily 43 days from day 38, glucose 2 g/kg (FIG. 8A)) was “can almost completely restore insulin action”, the “glucose tolerance (overall)” value (Lepr^db/db mice; 25 μg selenium/kg ip daily 43 days from day 41 (FIG. 8C)) was “can dramatically improve glucose tolerance” and the “blood glucose level at 2 hr after glucose injection” value (from here on “blood glucose level at 2 hr”) (Lepr^db/db mice; FIG. 8A, 43 days treatment) was “almost completely back to pre-injection glucose levels”. The “blood glucose levels at 0.25, 0.5 and 1 hr after glucose injection” value (Lepr^db/db mice; FIG. 8A, 43 days treatment) was “visibly lower than saline-, Compound #C- or #50-treated mice”, the “blood glucose level at 2 hr” value (Lepr^db/db mice; FIG. 8B, 2 months treatment) was “significantly lower than Compound #68-treated littermates” and the “blood glucose level at 1 hour after glucose injection” value (Lepr^db/db mice; FIG. 8C, 43 days treatment) was “significantly lower than saline-, Compound #69- or Compound #70-treated littermates”. The “blood glucose level at 2 hr” value (Lepr^db/db mice; FIG. 8C, 43 days treatment) was “much lower than Saline-, Compound #69- or Compound #70-treated mice”.
